Test results: patent US11104683B2, “Thioglycoluril compound, and method for producing same” (NISSAN CHEMICAL CORPORATION, priority 2016, dated 2021)

Assay: Solubility in solvents (PGME or PGMEA) commonly used in semiconductor device production
Format: physicochemical
Conditions: for Solubility (g/100 g-PGMEA): solvent propylene glycol 1-monomethyl ether 2-acetate (PGMEA); for Solubility (g/100 g-PGME): solvent propylene glycol 1-monomethyl ether (PGME)
Procedure: In order to examine the solubilities of TMOM-TGU produced in Example 2, TMOM-DTGU produced in Example 4, and TMOM-GU as Comparative Example, these compounds were dissolved in propylene glycol 1-monomethyl ether (PGME) or propylene glycol 1-monomethyl ether 2-acetate (PGMEA), each of which is a solvent commonly used in, for example, production processes for semiconductor devices.

SMILES | Solubility (g/100 g-PGMEA) | Solubility (g/100 g-PGME) | solubility in a solvent (in words) (conclusion from Table 1 (PGME, PGMEA))
COCN1C(=S)N(COC)C2C1N(COC)C(=S)N2COC (stereo not shown) [Example 4, 1,3,4,6-tetrakis(methoxymethyl)dithioglycoluril] | 25 | 20 | 
COCN1C(=O)N(COC)C2C1N(COC)C(=O)N2COC (stereo not shown) [Comparative Example, 1,3,4,6-tetrakis(methoxymethyl)glycoluril, reference compound] | 12.5 | 20 | 
COCN1C(=O)N(COC)C2C1N(COC)C(=S)N2COC (stereo not shown) [Example 2, 1,3,4,6-tetrakis(methoxymethyl)monothioglycoluril] | 100 | 100 | particularly excellent solubility
